Source: patent US10273234B2, “Compounds that are S1P modulating agents and/or ATX modulating agents” (BIOGEN MA INC., priority 2012, dated 2019)

Target: human S1P4 (Homo sapiens (Human), UniProt O95977)
Experiment: Calcium mobilization (calcium flux) assay, antagonist format, S1P4
Format: cell-based
Details: recombinant CHEM cells expressing human S1P4; FLIPR Calcium 4 dye; stimulated with EC80 of reference agonist
Protocol: Compounds that are not specific for a particular S1P receptor can cause undesirable side effects. Accordingly, compounds are tested to identify those that are specific. Accordingly, the test compounds are tested in a calcium mobilization assay/S1P receptor activity assay. The procedure is essentially as described in Davis et al. (2005) Journal of Biological Chemistry, vol. 280, pp. 9833-9841, which is incorporated by reference in its entirety with the following modifications. Calcium mobilization assays are performed in recombinant CHEM cells expressing human S1P1, S1P2, S1P3, S1P4, or S1P5 purchased from Millipore (Billerica, Mass.). To detect free intracellular calcium, S1P1, S1P2, S1P3, S1P4, or S1P5 cells are loaded with FLIPR Calcium 4 dye from Molecular Devices (Sunnyvale, Calif.). Cells are imaged for calcium mobilization using a FLIPR^TETRA equipped with a 96-well dispense head. […]
Assay was read for 180 seconds using the FLIPR^TETRA (This assay run added sample compounds and reference agonist to respective wells). […]
Using the EC80 values determined during the agonist assay, stimulated all pre-incubated sample compound and reference antagonist (if applicable) wells with EC80 of reference agonist. Read for 180 seconds using the FLIPR^TETRA (This assay added reference agonist to respective wells—then fluorescence measurements were collected to calculate percentage inhibition values).

Sequence of human S1P4 (O95977 whole entry): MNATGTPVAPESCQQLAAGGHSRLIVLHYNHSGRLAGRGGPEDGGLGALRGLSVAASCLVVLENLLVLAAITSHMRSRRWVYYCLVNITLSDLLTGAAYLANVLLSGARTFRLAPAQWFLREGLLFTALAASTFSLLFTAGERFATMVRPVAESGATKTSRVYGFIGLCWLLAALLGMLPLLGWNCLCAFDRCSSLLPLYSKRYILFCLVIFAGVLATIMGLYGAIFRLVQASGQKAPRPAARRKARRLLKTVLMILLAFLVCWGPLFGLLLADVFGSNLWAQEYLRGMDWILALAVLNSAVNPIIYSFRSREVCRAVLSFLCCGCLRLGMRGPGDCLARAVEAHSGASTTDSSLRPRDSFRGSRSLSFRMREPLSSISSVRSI

CC(C)(C)[C@H]1CC[C@H](Oc2cccc3c(CN4CCC(C(=O)O)CC4)cccc23)CC1 [Example 30, 1-((5-((trans-4-(tert-butyl)cyclohexyl)oxy)naphthalen-1-yl)methyl)piperidine-4-carboxylic acid]
IC50: ≤ 250 nM
